IC50 data for 28 compounds are collected here from US20250026748A1, “N-(5-SUBSTITUTED-[(1,3,4-THIADIAZOLYL) OR (THIAZOLYL)])(SUBSTITUTED)CARBOXAMIDE COMPOUNDS AND USE THEREOF FOR INHIBITING HUMAN POLYMERASE THETA” (Repare Therapeutics Inc., priority 2021, published 2025).

Usually IC50 stands for the concentration needed to halve the response being measured.

Read-outs that look alike come from different tables or passages of the source.

Experiment [1] addresses Polθ ATPase enzyme (1-894) (Homo sapiens (Human), UniProt O75417). In words: Polθ ATPase enzymatic assay (3 nM enzyme concentration), ADP-Glo. The experiment is classed as biochemical. On the procedure: Polθ ATPase enzyme (1-894) at 3 nM is incubated with a 10-point concentration response of inhibitors for 15 min at rt in the following buffer: 50 mM Tris Cl pH 7.5, 10% glycerol, 5 mM DTT, 10 mM MgCl2, 0.1 mg/ml BSA. Following pre-incubation with inhibitors, DNA (Fork C) at 20 nM and ATP at 100 μM are added to start the reaction. Enzymatic reaction proceeds at rt for 60 min. ATP consumption is measured using the ADP-Glo assay from Promega. Luminescence is read on the Envision and IC50 are determined using the variable slope 4-parameters equation.
DNA (Fork C) is made by annealing 3 different oligos containing the following sequence of nucleotides:
Oligos are annealed by heating at 95° C. for 5 min in the following buffer (10 mM Tris-HCl pH7.5, 50 mM NaCl, 1 mM EDTA) and cooled to rt. […]

In experiment [2] the target is PolQ ATPase enzyme (1-894) (Homo sapiens (Human), UniProt O75417). Briefly: Polθ ATPase enzymatic assay (0.5 nM enzyme concentration), ADP-Glo. Type of experiment: biochemical. As to conditions: average IC50; 0.5 nM PolQ ATPase enzyme (1-894). The essentials: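 Enzyme (0.5 nM) pre-incubated 15 min at rt with 10-point inhibitor series in 50 mM Tris pH 7.5, 10% glycerol, 5 mM DTT, 10 mM MgCl2, 0.1 mg/ml BSA; reaction started with 20 nM fork DNA and 100 μM ATP, run 180 min at rt. ADP-Glo luminescence; IC50 from 4-parameter variable-slope fit.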

[3] abbreviates: read-out: IC50 (nM) [PolQ] 3 nM, average IC50, 3 nM PolQ ATPase enzyme (1-894).

PolQ ATPase enzyme (1-894), sequence (O75417 1-894): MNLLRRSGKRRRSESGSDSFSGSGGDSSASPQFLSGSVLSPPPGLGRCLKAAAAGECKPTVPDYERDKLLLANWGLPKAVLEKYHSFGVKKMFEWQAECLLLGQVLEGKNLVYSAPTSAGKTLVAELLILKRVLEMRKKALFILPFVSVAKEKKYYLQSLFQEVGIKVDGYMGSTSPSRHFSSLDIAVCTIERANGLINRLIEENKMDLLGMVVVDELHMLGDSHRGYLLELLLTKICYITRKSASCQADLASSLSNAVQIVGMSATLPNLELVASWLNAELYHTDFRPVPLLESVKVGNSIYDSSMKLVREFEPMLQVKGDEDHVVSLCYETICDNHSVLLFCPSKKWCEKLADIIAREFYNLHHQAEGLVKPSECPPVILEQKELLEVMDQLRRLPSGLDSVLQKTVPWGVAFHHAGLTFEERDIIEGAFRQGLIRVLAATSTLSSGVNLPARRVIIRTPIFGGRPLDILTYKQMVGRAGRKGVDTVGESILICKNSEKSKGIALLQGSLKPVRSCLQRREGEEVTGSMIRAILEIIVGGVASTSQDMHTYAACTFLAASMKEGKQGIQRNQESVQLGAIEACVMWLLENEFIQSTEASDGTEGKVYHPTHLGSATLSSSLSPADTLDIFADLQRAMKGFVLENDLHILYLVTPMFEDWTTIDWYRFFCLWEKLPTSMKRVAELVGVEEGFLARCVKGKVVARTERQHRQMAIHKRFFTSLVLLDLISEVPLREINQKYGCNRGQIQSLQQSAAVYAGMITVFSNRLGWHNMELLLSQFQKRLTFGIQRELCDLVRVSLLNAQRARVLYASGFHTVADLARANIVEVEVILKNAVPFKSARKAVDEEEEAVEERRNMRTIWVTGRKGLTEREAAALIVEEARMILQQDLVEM
Polθ ATPase enzyme (1-894), sequence (O75417 1-894): as above

`COc1ccc(C#N)cc1-c1cnccc1C(=O)Nc1nnc(C#CC2CC2)s1` [Compound 12, 3-(5-cyano-2-methoxyphenyl)-N-(5-(cyclopropylethynyl)-1,3,4-thiadiazol-2-yl)isonicotinamide]: the values for the IC50 in experiment [1] (setting [3]) and in experiment [2] were 2 nM and 3.5 nM, respectively.
For `COc1ccc(F)cc1-c1cnccc1C(=O)Nc1nnc(C#Cc2cnn(CC#N)c2)s1` [Compound 8, N-(5-((1-(cyanomethyl)-1H-pyrazol-4-yl)ethynyl)-1,3,4-thiadiazol-2-yl)-3-(5-fluoro-2-methoxyphenyl)isonicotinamide], the IC50 in experiment [1] (setting [3]) is 48 nM.
For the compound `COc1ccc(F)cc1-n1cncc1C(=O)Nc1nnc(C#CC2CC2)s1` [Compound 22], the IC50 in experiment [1] (setting [3]) is 12 nM.
On the same count and under the same terms, the same measure for `COc1ccc(C#N)cc1-c1cn(C)c(=O)cc1C(=O)Nc1nnc(C#CC2CC2)s1` [Compound 20]: 21 nM; for `COc1ccc(F)cc1-c1cnccc1C(=O)Nc1nnc([C@@H]2C[C@H]2c2ccn(C)n2)s1` [Compound 3, 3-(5-fluoro-2-methoxyphenyl)-N-(5-((1R,2R)-2-(1-methyl-1H-pyrazol-3-yl)cyclopropyl)-1,3,4-thiadiazol-2-yl)isonicotinamide]: 23 nM; for `COc1ccc(F)cc1-c1cnccc1C(=O)Nc1nnc(C#Cc2cnc3cnccn23)s1` [Compound 14]: 139 nM.
Regarding `COc1ccc(C#N)cc1-c1cnccc1C(=O)Nc1nnc(C#CC2CC23CC3)s1` (centres unmarked) [Compound 6, 3-(5-cyano-2-methoxyphenyl)-N-(5-(spiro[2.2]pentan-1-ylethynyl)-1,3,4-thiadiazol-2-yl)isonicotinamide], the IC50 in experiment [1] (setting [3]) amounted to 2 nM; in experiment [2] it was 0.63 nM.
`COc1ccc(F)cc1-c1cn(C)c(=O)cc1C(=O)Nc1nnc(C#CC2CC2)s1` [Compound 21]: the concentration for half-maximal inhibition (IC50) in experiment [1] (setting [3]) was determined as 12 nM.
Turning to `COc1ccc(C#N)cc1-n1cncc1C(=O)Nc1nnc(C#CC2CC2)s1` [Compound 23], the IC50 in experiment [1] (setting [3]) came to 134 nM.
As to `COc1ccc(F)cc1-c1cnccc1C(=O)Nc1nnc(C#Cc2ccc3nccn3n2)s1` [Compound 11], the IC50 in experiment [1] (setting [3]) was 117 nM.
Regarding `COc1ccc(F)cc1-c1cn(C)c(=O)cc1C(=O)Nc1nnc(C#Cc2ccn(C)n2)s1` [Compound 19], in experiment [1] (setting [3]), the IC50 worked out at 27 nM.
As to `COc1ccc(C(F)(F)F)cc1-c1cnccc1C(=O)Nc1nnc(C#CC2CC2)s1` [Compound 24], the half-maximal inhibitory concentration (IC50) in experiment [1] (setting [3]) was < 1.5 nM; in experiment [2], 0.78 nM.
As for `COc1ccc(F)cc1-c1cnccc1C(=O)Nc1nnc(C#Cc2cnc(C#N)c(OC)c2)s1` [Compound 10], the IC50 in experiment [1] (setting [3]) worked out at 54 nM.
On to `COc1ccc(F)cc1-c1cn(C)c(=O)cc1C(=O)Nc1nnc(C#Cc2cc(C)[nH]n2)s1` [Compound 17], for which the IC50 was found to be 5.4 nM in experiment [1] (setting [3]) and 3.2 nM in experiment [2].
On to `COc1cnc(Cl)cc1-c1cnccc1C(=O)Nc1nnc(C#CC2CC2)s1` [Compound 25], for which the values for the IC50 in experiment [1] (setting [3]) and in experiment [2] were 1.5 nM and 1.3 nM, respectively.
For the compound `COc1c(F)cccc1-c1cnccc1C(=O)Nc1nnc(C#CC2CC2)s1` [Compound 13], the 50% inhibitory concentration (IC50) in experiment [1] (setting [3]) is 6.9 nM; in experiment [2], 4.2 nM.
`COc1ccc(F)cc1-c1cn(C)c(=O)cc1C(=O)Nc1nnc(C#Cc2cnn(C3CCCNC3)c2)s1` (centres unmarked) [Compound 18]: in experiment [1] (setting [3]), the half-maximal inhibitory concentration (IC50) is 204 nM.
As to `COc1ccc(C#N)cc1-c1cn(C)c(=O)cc1C(=O)Nc1nnc(C2C[C@H]2c2ccc(C#N)cc2)s1` (some centres unmarked) [Compound 15], the IC50 in experiment [1] (setting [3]) stood at 15 nM.
Take `COc1ccc(C#N)cc1-c1cnccc1C(=O)Nc1nnc(C#CC2(N)CC2)s1` [Compound 9]: in experiment [1] (setting [3]), the IC50 was 33 nM.
In the case of `COc1ccc(C#N)cc1-c1cnccc1C(=O)Nc1nnc(C2C[C@H]2c2ccc(C#N)cc2)s1` (mixture of isomers) [Compound 2, N-(5-((1R,2R)-2-(4-cyanophenyl)cyclopropyl)-1,3,4-thiadiazol-2-yl)-3-(5-cyano-2-methoxyphenyl)isonicotinamide], the IC50 was 3.3 nM in experiment [1] and 2.2 nM in experiment [2].
Consider `COc1ccc(F)cc1-c1cnccc1C(=O)Nc1nnc([C@@H]2C[C@H]2c2ccc(C#N)cc2)s1` [Compound 1, N-(5-((1R,2R)-2-(4-cyanophenyl)cyclopropyl)-1,3,4-thiadiazol-2-yl)-3-(5-fluoro-2-methoxyphenyl)isonicotinamide], for which the figures for the IC50 in experiment [1] (setting [3]) and in experiment [2] were 5.8 nM and 1.1 nM, respectively.
`COc1ccc(C#N)cc1-c1cnccc1C(=O)Nc1nnc(C#CC2CCC2)s1` [Compound 5]: the IC50 in experiment [1] (setting [3]) came to 2.9 nM; in experiment [2], 1.5 nM.
Regarding `COc1cnc(Cl)cc1-c1cnccc1C(=O)Nc1nnc([C@@H]2C[C@H]2c2ccc(C#N)cc2)s1` [Compound 26, 2′-chloro-N-(5-((1R,2R)-2-(4-cyanophenyl)cyclopropyl)-1,3,4-thiadiazol-2-yl)-5′-methoxy-[3,4′-bipyridine]-4-carboxamide], the IC50 in experiment [1] (setting [3]) turned out to be 2.6 nM; in experiment [2] it was 0.53 nM.
On to `COc1ccc(C#N)cc1-c1cnccc1C(=O)Nc1nnc(C#CC2COC2)s1` [Compound 7, 3-(5-cyano-2-methoxyphenyl)-N-(5-(oxetan-3-ylethynyl)-1,3,4-thiadiazol-2-yl)isonicotinamide], for which, in experiment [1] (setting [3]), the IC50 is 12 nM.
With `COc1ccc(F)cc1-c1cnccc1C(=O)Nc1nnc([C@@H]2C[C@H]2c2nc3ccccc3n2C)s1` [Compound 4, 3-(5-fluoro-2-methoxyphenyl)-N-(5-((1R,2R)-2-(1-methyl-1H-benzo[d]imidazol-2-yl)cyclopropyl)-1,3,4-thiadiazol-2-yl)isonicotinamide], the IC50 in experiment [1] (setting [3]) is 92 nM.
As for `COc1cnc(C(F)F)cc1-c1cc(N2CCN(C)C3(CC3)C2=O)ncc1C(=O)Nc1ncc(C#CC2CC2)s1` [Compound 465], inhibition in experiment [2] was half-maximal at 0.27 nM (IC50).
On the same count and under the same terms, then `COc1cnc(C(F)F)cc1-c1cc(OC2CCN(C)C2=O)ncc1C(=O)Nc1nnc(C#CC2CC2)s1` (centres unmarked) [Compound 182], with 1.2 nM.
On the same count and under the same terms, then `COc1cnc(C(F)F)cc1-c1cc(Nc2ccn(C)n2)ccc1C(=O)Nc1nnc(C#CC2CC2)s1` [Compound 166], with 0.52 nM.
